Experimental data: patent US11192890B2, “FGFR kinase inhibitors and pharmaceutical uses” (AUCKLAND UNISERVICES LIMITED, priority 2017, dated 2021)
Read-outs that look alike come from different tables or passages of the source.

What was measured:
[1] = tested on: FGFR3-amplified SW780 bladder cancer cells; test: Cell proliferation assay (SRB)
[2] = tested on: FGFR4-amplified Hep3B hepatocellular carcinoma cells; test: Cell proliferation assay (SRB); format: cell-based; details: read-out: Cellular Anti-proliferative IC50, Hep3B
[3] = tested on: FGFR2-amplified SUM52 breast cancer cells; test: Cell proliferation assay (SRB); format: cell-based
FGFR4 = target: T1, FGFR4 (Homo sapiens, UniProt P22455); test: Isolated enzyme FRET-based Z-Lyte kinase inhibition assay; format: biochemical; details: means from 3 independent experiments; read-out: Isolate Enzyme Inhibition IC50, FGFR4
T1 construct: purchased Invitrogen
T1 sequence (P22455 22-802): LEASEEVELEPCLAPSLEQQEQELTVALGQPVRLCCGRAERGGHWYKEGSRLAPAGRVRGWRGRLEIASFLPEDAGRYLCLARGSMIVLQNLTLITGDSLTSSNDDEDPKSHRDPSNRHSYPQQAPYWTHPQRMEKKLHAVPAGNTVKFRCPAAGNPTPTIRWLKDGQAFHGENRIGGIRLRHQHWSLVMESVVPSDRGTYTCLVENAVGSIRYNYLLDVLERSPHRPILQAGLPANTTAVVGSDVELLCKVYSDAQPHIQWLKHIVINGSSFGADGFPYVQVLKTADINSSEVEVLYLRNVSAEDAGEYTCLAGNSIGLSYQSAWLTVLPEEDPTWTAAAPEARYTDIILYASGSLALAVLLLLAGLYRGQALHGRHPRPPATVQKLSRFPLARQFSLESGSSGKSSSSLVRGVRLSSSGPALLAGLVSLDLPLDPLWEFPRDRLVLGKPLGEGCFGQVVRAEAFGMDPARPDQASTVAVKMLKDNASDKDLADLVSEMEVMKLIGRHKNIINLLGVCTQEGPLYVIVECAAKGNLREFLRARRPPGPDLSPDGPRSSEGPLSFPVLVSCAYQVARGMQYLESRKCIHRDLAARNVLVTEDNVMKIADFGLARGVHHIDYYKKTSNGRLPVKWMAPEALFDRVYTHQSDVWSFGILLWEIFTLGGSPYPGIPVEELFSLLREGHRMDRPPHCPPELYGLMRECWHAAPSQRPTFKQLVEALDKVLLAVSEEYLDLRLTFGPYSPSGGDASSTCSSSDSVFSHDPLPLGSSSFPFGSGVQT
Description: (§1) FGFR1-4 and the Z-Lyte Kinase Assay Kit were purchased from Invitrogen. The concentration gradients from 5.1×10^−11 to 1.0×10^−6 mol/L were used for all the test compounds. The experiments were performed according to the instructions of the manufacturer.
(§2) FGFR1-4 isolated enzyme activity was determined using the FRET-based Z-Lyte kinase inhibition assay. The data are the means from 3 independent experiments.

FGFR3 = target: T2, FGFR3 (Homo sapiens, UniProt P22607); test: as above; format: biochemical; details: means from 3 independent experiments; read-out: Isolate Enzyme Inhibition IC50, FGFR3
T2 construct: purchased Invitrogen
T2 sequence (P22607 23-806): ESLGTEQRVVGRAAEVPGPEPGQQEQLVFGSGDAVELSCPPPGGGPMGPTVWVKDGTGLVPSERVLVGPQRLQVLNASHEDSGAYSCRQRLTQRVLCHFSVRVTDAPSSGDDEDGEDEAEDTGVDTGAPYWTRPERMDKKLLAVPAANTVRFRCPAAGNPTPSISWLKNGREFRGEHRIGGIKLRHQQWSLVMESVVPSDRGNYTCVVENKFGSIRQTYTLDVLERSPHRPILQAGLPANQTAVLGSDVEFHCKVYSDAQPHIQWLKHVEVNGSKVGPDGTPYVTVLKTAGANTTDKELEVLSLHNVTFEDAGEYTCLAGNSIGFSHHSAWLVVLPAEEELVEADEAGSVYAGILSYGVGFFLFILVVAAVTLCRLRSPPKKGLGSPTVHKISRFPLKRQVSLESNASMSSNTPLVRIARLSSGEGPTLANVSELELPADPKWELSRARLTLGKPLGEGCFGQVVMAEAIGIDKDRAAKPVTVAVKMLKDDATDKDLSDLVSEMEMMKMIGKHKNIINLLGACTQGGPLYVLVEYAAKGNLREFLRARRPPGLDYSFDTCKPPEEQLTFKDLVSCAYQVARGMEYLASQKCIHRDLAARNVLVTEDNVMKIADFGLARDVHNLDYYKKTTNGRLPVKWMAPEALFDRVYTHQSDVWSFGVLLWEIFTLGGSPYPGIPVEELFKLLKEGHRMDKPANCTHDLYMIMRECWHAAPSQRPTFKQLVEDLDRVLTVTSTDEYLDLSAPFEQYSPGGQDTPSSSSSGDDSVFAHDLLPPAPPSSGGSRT
Description: as §1, §2

FGFR2 = target: T3, FGFR2 (Homo sapiens, UniProt P21802); test: as above; format: biochemical; details: means from 3 independent experiments; read-out: Isolate Enzyme Inhibition IC50, FGFR2
T3 construct: purchased Invitrogen
T3 sequence (P21802 22-821): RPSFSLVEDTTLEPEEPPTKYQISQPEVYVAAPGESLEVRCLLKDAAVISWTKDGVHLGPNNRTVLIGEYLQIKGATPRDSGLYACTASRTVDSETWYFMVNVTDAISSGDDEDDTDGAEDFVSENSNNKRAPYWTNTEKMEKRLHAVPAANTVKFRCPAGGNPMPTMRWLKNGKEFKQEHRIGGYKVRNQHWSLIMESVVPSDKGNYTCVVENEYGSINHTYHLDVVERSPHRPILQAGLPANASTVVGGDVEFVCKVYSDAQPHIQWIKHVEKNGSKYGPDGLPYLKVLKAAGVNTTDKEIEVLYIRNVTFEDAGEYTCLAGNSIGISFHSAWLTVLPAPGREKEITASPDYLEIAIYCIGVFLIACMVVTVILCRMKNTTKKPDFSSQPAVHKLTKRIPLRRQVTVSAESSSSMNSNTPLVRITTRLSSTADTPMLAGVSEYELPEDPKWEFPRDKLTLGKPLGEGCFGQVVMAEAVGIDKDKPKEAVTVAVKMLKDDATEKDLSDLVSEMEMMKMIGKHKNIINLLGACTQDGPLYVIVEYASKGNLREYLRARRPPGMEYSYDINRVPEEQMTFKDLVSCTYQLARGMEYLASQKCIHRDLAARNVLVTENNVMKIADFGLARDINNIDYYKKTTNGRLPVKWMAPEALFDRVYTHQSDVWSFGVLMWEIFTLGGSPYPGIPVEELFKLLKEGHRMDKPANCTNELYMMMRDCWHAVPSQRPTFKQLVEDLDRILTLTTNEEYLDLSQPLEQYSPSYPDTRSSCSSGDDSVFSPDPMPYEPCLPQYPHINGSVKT
Description: as §1, §2

[4] = tested on: FGFR3 in SW780 cells (phospho-ERK1/2); test: Drug washout Western blot assay, SW780 cells; format: cell-based; details: SW780; for phospho-ERK1/2 after extensive drug washout: washout prior to FGF-stimulation
[5] = tested on: FGFR1 in H520 cells (phospho-ERK1/2); test: Drug washout Western blot assay, H520 cells; format: cell-based; details: H520, 30 min, washout prior to FGF-stimulation
[6] = tested on: FGFR2 in SUM52 cells (phospho-ERK1/2); test: Drug washout Western blot assay, SUM52 cells; format: cell-based; details: SUM52; for phospho-ERK1/2 after extensive drug washout: washout prior to FGF-stimulation
Description: Cells were seeded on the day prior to drug treatment (1 million cells/well; 6-well plate).
Drug stocks were prepared in media using 1 mM or 10 mM DMSO stock solutions. Media was aspirated from each well and replaced with 2 ml of drug-free media for control wells or 2 ml of diluted drug for treated wells. Cells were exposed to drug for 30 min. Recombinant FGF (50 ng/well) was added to each well 15 minutes prior to the end of the drug exposure and protein was extracted as below.
Cells were exposed to drug for 30 min as above. Media was aspirated and each well was washed with 5 ml drug-free media. The wash media was aspirated and replaced with 2 ml drug-free media and cells incubated for a further 30 minutes, after which the wash protocol was repeated. Cells were incubated for a further 90 minutes in drug-free media. Recombinant FGF (50 ng/well) was added to each well 15 minutes prior to the end of the drug-free incubation and protein was extracted as below.
Cell lysates were prepared in 250 μL of RIPA lysis buffer containing protease inhibitor (1:100). After incubation on ice (30 min) and centrifugation (13,000 rpm, 5 min, 4° C.) the supernatants containing the proteins were stored (−20° C.) until required. Bicinchoninic acid (BCA) assay was used to determine the protein concentration of individual cell lysate samples.

H520 cells = test: Oxic and anoxic anti-proliferative activity of the prodrugs; details: for Hypoxic Cytotoxicity Ratio (HCR), H520: ratio of oxic and anoxic IC50
[7] = tested on: SW780 (FGFR3-amplified bladder cancer) xenograft; test: Anti-tumour activity, SW780 xenograft; format: in vivo, NIH-III nude mice; details: 30 umol/kg, q3dx4, IP
Description: Specific pathogen-free homozygous female NIH-III nude mice (Charles River Laboratories, Wilmington, Mass.) were inoculated subcutaneously with a single cell suspension of SW780 cells (8×10^6 cells/100 μL with Matrigel; right flank) or SNU-16 cells (10×10^6 cells/100 μL; right flank). When tumour xenografts were established (typically 7-14 days for SW780 and 21-28 days for SNU-16) mice were randomized to treatment groups. Test compounds of the present invention were prepared in Water for Injection (WFI). Mice were dosed by intraperitoneal injection (0.01-0.03 ml/g) using the stated schedules and dose levels. […] Tumour size and body weights were measured at regular intervals. Tumour volume was calculated as […] (length×width^2)/6.

SUM52 cells = test: Oxic and anoxic anti-proliferative activity of the prodrugs; details: for Hypoxic Cytotoxicity Ratio (HCR), SUM52: ratio of oxic and anoxic IC50
SW780 cells = test: as above; format: cell-based; details: Homo sapiens, SW780; oxic conditions; read-out: Cellular Anti-proliferative IC50, SW780, Oxic
[8] = read-out: Cellular Anti-proliferative IC50, SW780, 5 days drug exposure
[9] = read-out: Cellular Anti-proliferative IC50, SUM52, 5 days drug exposure
[10] = Homo sapiens, SW780, 120 h, read-out: Cellular Anti-proliferative IC50, SW780, 5 days drug exposure
[11] = SUM52, 120 h, read-out: Cellular Anti-proliferative IC50, SUM52, 5 days drug exposure
[12] = 100 nM, 30 min, then FGF-stimulation
[13] = 30 min exposure, 100 nM, with and without washout
[14] = read-out: Cellular Anti-proliferative IC50, H520, Oxic, oxic conditions
[15] = read-out: Cellular Anti-proliferative IC50, SUM52, Anoxic, 4 hours of anoxia, remainder of assay oxic
[16] = read-out: Cellular Anti-proliferative IC50, SUM52, Oxic, oxic conditions
[17] = read-out: Cellular Anti-proliferative IC50, H520, Anoxic, 4 hours of anoxia, remainder of assay oxic

Row | SMILES | IC50 ([2]; Homo sapiens, Hep3B) | IC50 (FGFR4) | IC50 (H520 cells; [14]) | anti-tumour activity (median tumour growth delay) [7] | Hypoxic Cytotoxicity Ratio (HCR), SUM52 (SUM52 cells) | IC50 (SUM52 cells; [15]) | IC50 (SUM52 cells; [16]) | IC50 (SW780 cells) | also measured
1 | CNc1ncc2c(n1)N([C@H]1CCCN(C(=O)/C=C/CN(C)C)C1)C(=O)N(c1c(Cl)c(OC)cc(OC)c1Cl)C2 [Compound 100, (S,E)-3-(2,6-dichloro-3,5-dimethoxyphenyl)-1-(1-(4-(dimethylamino)but-2-enoyl)piperidin-3-yl)-7-(methylamino)-3,4-dihydropyrimido[4,5-d]pyrimidin-2(1H)-one] | 245 nM | – | – | – | – | – | – | – | IC50 [1, 8]: 28 nM; IC50 [3, 9]: 3.3 nM
2 | CNc1ncc2c(n1)N([C@H]1CCCN(C(=O)/C=C/CN(C)C)C1)C(=O)N(c1c(Cl)c(OC)cc(OC)c1Cl)C2 [Compound 101, (S,E)-3-(2,6-dichloro-3,5-dimethoxyphenyl)-1-(1-(4-(dimethylamino)but-2-enoyl)piperidin-3-yl)-7-(methylamino)-3,4-dihydropyrimido[4,5-d]pyrimidin-2(1H)-one] | – | < 100 nM | – | – | – | – | – | – | IC50 [1, 8]: 59 nM; IC50 [2]: 163 nM; IC50 [3, 9]: 9 nM
3 | CNc1ncc2c(n1)N([C@@H]1CCN(C(=O)/C=C/CN(C)C)C1)C(=O)N(c1c(Cl)c(OC)cc(OC)c1Cl)C2 [Compound 102, (R,E)-3-(2,6-dichloro-3,5-dimethoxyphenyl)-1-(1-(4-(dimethylamino)but-2-enoyl)pyrrolidin-3-yl)-7-(methylamino)-3,4-dihydropyrimido[4,5-d]pyrimidin-2(1H)-one] | 1430 nM | > 1000 nM | – | – | – | – | – | – | IC50 [1, 10]: 700 nM; IC50 [3, 11]: 51 nM; IC50 (FGFR3): 703 nM; IC50 (FGFR2): 15 nM
4 | CNc1ncc2c(n1)N([C@H]1CCN(C(=O)/C=C/CN(C)C)C1)C(=O)N(c1c(Cl)c(OC)cc(OC)c1Cl)C2 [Compound 103, (S,E)-3-(2,6-dichloro-3,5-dimethoxyphenyl)-1-(1-(4-(dimethylamino)but-2-enoyl)pyrrolidin-3-yl)-7-(methylamino)-3,4-dihydropyrimido[4,5-d]pyrimidin-2(1H)-one] | 48 nM | 287 nM | – | – | – | – | – | – | IC50 [1, 10]: 31 nM; inhibition of phosphorylation of ERK1/2, no washout [4, 12]: complete inhibition; phospho-ERK1/2 after extensive drug washout ([4]; 100 nM, 30 min): restoration; phospho-ERK1/2 after extensive drug washout ([4]; 1000 nM, 30 min): restoration; reversible or irreversible inhibition of FGFR3 in cells [4, 13]: reversible inhibitor; phospho-ERK1/2 after extensive drug washout ([5]; 100 nM): restoration; phospho-ERK1/2 after extensive drug washout ([5]; 1000 nM): restoration; inhibition of phosphorylation of ERK1/2, no washout [6, 12]: complete inhibition; phospho-ERK1/2 after extensive drug washout ([6]; 100 nM, 30 min): restoration; phospho-ERK1/2 after extensive drug washout ([6]; 1000 nM, 30 min): restoration; reversible or irreversible inhibition of FGFR2 in cells [6, 13]: reversible inhibitor; IC50 [3, 11]: 4.8 nM; IC50 (FGFR3): 17 nM; IC50 (FGFR2): 3.3 nM
5 | CNc1ncc2cc(-c3c(Cl)c(OC)cc(OC)c3Cl)c(=O)n(C3CCN(C(=O)/C=C/C[N+](C)(C)Cc4c([N+](=O)[O-])ncn4C)CC3)c2n1.[Br-] [Compound 208, (E)-4-(4-(6-(2,6-dichloro-3,5-dimethoxyphenyl)-2-(methylamino)-7-oxopyrido[2,3-d]pyrimidin-8(7H)-yl)piperidin-1-yl)-N,N-dimethyl-N-((1-methyl-4-nitro-1H-imidazol-5-yl)methyl)-4-oxobut-2-en-1-aminium bromide] | – | – | 4150 nM | significant anti-tumour activity | 5 | 3 nM | 13 nM | 2580 nM | time for tumours to reach 4 times relative tumour volume (RTV4) ([7]; control 12 days): ~24 days
6 | COc1cc(OC)c(Cl)c(-c2cc3cnc(NC(C)C)nc3n(C3CCN(C(=O)/C=C/C[N+](C)(C)Cc4c([N+](=O)[O-])ncn4C)CC3)c2=O)c1Cl.[Br-] [Compound 209, (E)-4-(4-(6-(2,6-dichloro-3,5-dimethoxyphenyl)-2-(isopropylamino)-7-oxopyrido[2,3-d]pyrimidin-8(7H)-yl)piperidin-1-yl)-N,N-dimethyl-N-((1-methyl-4-nitro-1H-imidazol-5-yl)methyl)-4-oxobut-2-en-1-aminium bromide] | – | – | 1480 nM | significant anti-tumour activity | 68 | 4 nM | 269 nM | 1570 nM | Hypoxic Cytotoxicity Ratio (HCR), H520 (H520 cells): 36; IC50 (H520 cells; [17]): 41 nM
7 | COc1cc(OC)c(Cl)c(-c2cc3cnc(Nc4ccccc4)nc3n(C3CCN(C(=O)/C=C/C[N+](C)(C)Cc4c([N+](=O)[O-])ncn4C)CC3)c2=O)c1Cl.[Br-] [Compound 211, (E)-4-(4-(6-(2,6-dichloro-3,5-dimethoxyphenyl)-7-oxo-2-(phenylamino)pyrido[2,3-d]pyrimidin-8(7H)-yl)piperidin-1-yl)-N,N-dimethyl-N-((1-methyl-4-nitro-1H-imidazol-5-yl)methyl)-4-oxobut-2-en-1-aminium bromide] | – | – | 817 nM | significant anti-tumour activity | 16 | 12 nM | 199 nM | 754 nM | Hypoxic Cytotoxicity Ratio (HCR), H520 (H520 cells): 20; IC50 (H520 cells; [17]): 41 nM
8 | COc1cc(OC)c(Cl)c(-c2cc3cnc(NC(C)C)nc3n(Cc3cccc(NC(=O)/C=C/C[N+](C)(C)Cc4c([N+](=O)[O-])ncn4C)c3)c2=O)c1Cl.[Br-] [Compound 213, (E)-4-((3-((6-(2,6-dichloro-3,5-dimethoxyphenyl)-2-(isopropylamino)-7-oxopyrido[2,3-d]pyrimidin-8(7H)-yl)methyl)phenyl)amino)-N,N-dimethyl-N-((1-methyl-4-nitro-1H-imidazol-5-yl)methyl)-4-oxobut-2-en-1-aminium bromide] | – | – | – | significant anti-tumour activity | 5 | 7 nM | 40 nM | – | –
